Assay results taken from PubChem BioAssay AID256 (DTP/NCI, 2004).
Values joined by “and” are separate entries in the source; they are usually repeats but may differ in a detail not shown here. Equal entries are not always repeated. Toxic doses and inconclusive results are not listed. How the source made its calls: active means survival T/C of 150% or more; inactive means T/C below 125% in these data.

Test system: CD2F1 mice, L1210 leukemia ip, survival T/C
Test: NCI In Vivo Anticancer Drug Screen. Data for tumor model L1210 Leukemia (intraperitoneal) in CD2F1 (CDF1) mice
Conditions: higher = longer survival
In short: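 Ratio T/C, where T is the treated-group value and C the vehicle-dosed control value, from mice implanted with a transplantable tumor.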

[1] = endpoint: mean survival time, dose: 25.0 mg/kg/injection, schedule: Q01DX009 (ip), vehicle: saline with Tween-80
[2] = endpoint: mean survival time, dose: 50.0 mg/kg/injection, schedule: Q01DX009 (ip), vehicle: saline with Tween-80
[3] = endpoint: mean survival time, dose: 100.0 mg/kg/injection, schedule: Q01DX009 (ip), vehicle: saline with Tween-80
[4] = endpoint: mean survival time, dose: 200.0 mg/kg/injection, schedule: Q01DX009 (ip), vehicle: saline with Tween-80

Measured: T/C

COc1ccc2c(c1)N(CCC1CCCCN1C)c1ccccc1S2 (stereo unspecified)
inactive: endpoint: mean survival time, dose: 6.25 mg/kg/injection, schedule: Q04DX003 (ip), vehicle: saline 93 % of control and 100 % of control | endpoint: mean survival time, dose: 12.5 mg/kg/injection, schedule: Q04DX003 (ip), vehicle: Klucel (hydroxypropylcellulose) (HPC) 97 % of control | endpoint: mean survival time, dose: 12.5 mg/kg/injection, schedule: Q04DX003 (ip), vehicle: saline 98 % of control and 100 % of control | endpoint: mean survival time, dose: 25.0 mg/kg/injection, schedule: Q04DX003 (ip), vehicle: Klucel (hydroxypropylcellulose) (HPC) 95 % of control | endpoint: mean survival time, dose: 25.0 mg/kg/injection, schedule: Q04DX003 (ip), vehicle: saline 101 % of control and 102 % of control | endpoint: mean survival time, dose: 50.0 mg/kg/injection, schedule: Q04DX003 (ip), vehicle: Klucel (hydroxypropylcellulose) (HPC) 97 % of control | endpoint: mean survival time, dose: 50.0 mg/kg/injection, schedule: Q04DX003 (ip), vehicle: saline 106 % of control | endpoint: mean survival time, dose: 100.0 mg/kg/injection, schedule: Q04DX003 (ip), vehicle: Klucel (hydroxypropylcellulose) (HPC) 103 % of control

CSC(=NC#N)N(C)C
inactive: endpoint: mean survival time, dose: 25.0 mg/kg/injection, schedule: Q04DX003 (ip), vehicle: saline sonified 105 % of control | endpoint: mean survival time, dose: 50.0 mg/kg/injection, schedule: Q04DX003 (ip), vehicle: saline sonified 95 % of control | endpoint: mean survival time, dose: 100.0 mg/kg/injection, schedule: Q01DX001 (ip), vehicle: saline with Tween-80 114 % of control

CCCCCCCCCCCC[n+]1ccc(C#N)cc1
inactive: endpoint: mean survival time, dose: 9.38 mg/kg/injection, schedule: Q01DX001 (ip), vehicle: saline 103 % of control | endpoint: mean survival time, dose: 18.75 mg/kg/injection, schedule: Q01DX001 (ip), vehicle: saline 94 % of control

O=C1OC2(c3ccc(Cl)cc3Oc3cc(Cl)ccc32)c2ccccc21
inactive: endpoint: mean survival time, dose: 100.0 mg/kg/injection, schedule: Q04DX002 (ip), vehicle: Klucel (hydroxypropylcellulose) (HPC) 101 % of control | endpoint: mean survival time, dose: 200.0 mg/kg/injection, schedule: Q04DX002 (ip), vehicle: Klucel (hydroxypropylcellulose) (HPC) 97 % of control | endpoint: mean survival time, dose: 400.0 mg/kg/injection, schedule: Q04DX002 (ip), vehicle: Klucel (hydroxypropylcellulose) (HPC) 89 % of control

O=S(O)OS(=O)O
inactive: endpoint: mean survival time, dose: 37.5 mg/kg/injection, schedule: Q01DX009 (ip), vehicle: saline 89 % of control | endpoint: mean survival time, dose: 75.0 mg/kg/injection, schedule: Q01DX009 (ip), vehicle: saline 91 % of control | endpoint: mean survival time, dose: 100.0 mg/kg/injection, schedule: Q04DX003 (ip), vehicle: saline 101 % of control | endpoint: mean survival time, dose: 150.0 mg/kg/injection, schedule: Q01DX009 (ip), vehicle: saline 93 % of control | endpoint: mean survival time, dose: 200.0 mg/kg/injection, schedule: Q04DX003 (ip), vehicle: saline 101 % of control | endpoint: mean survival time, dose: 300.0 mg/kg/injection, schedule: Q01DX009 (ip), vehicle: saline 91 % of control | endpoint: mean survival time, dose: 400.0 mg/kg/injection, schedule: Q04DX003 (ip), vehicle: saline 96 % of control

COc1ccc(NC(=O)Oc2cc(C(C)C)ccc2C)cc1
inactive: endpoint: mean survival time, dose: 100.0 mg/kg/injection, schedule: Q04DX002 (ip), vehicle: saline with Tween-80 98 % of control | endpoint: mean survival time, dose: 200.0 mg/kg/injection, schedule: Q04DX002 (ip), vehicle: saline with Tween-80 98 % of control | endpoint: mean survival time, dose: 400.0 mg/kg/injection, schedule: Q04DX002 (ip), vehicle: saline with Tween-80 94 % of control

Nc1cccc(C(=O)O)c1
inactive: endpoint: mean survival time, dose: 100.0 mg/kg/injection, schedule: Q04DX003 (ip), vehicle: saline with Tween-80 95 % of control | endpoint: mean survival time, dose: 200.0 mg/kg/injection, schedule: Q04DX003 (ip), vehicle: saline with Tween-80 94 % of control | endpoint: mean survival time, dose: 400.0 mg/kg/injection, schedule: Q04DX003 (ip), vehicle: saline with Tween-80 94 % of control

O=NN(CCCl)C(=O)/N=N/C(=O)N(CCCl)N=O
inactive: endpoint: median survival time, dose: 3.12 mg/kg/injection, schedule: Q01DX001 (ip), vehicle: water 100 % of control | endpoint: median survival time, dose: 6.25 mg/kg/injection, schedule: Q01DX001 (ip), vehicle: water 98 % of control | endpoint: median survival time, dose: 12.5 mg/kg/injection, schedule: Q01DX001 (ip), vehicle: water 113 % of control | endpoint: median survival time, dose: 25.0 mg/kg/injection, schedule: Q01DX001 (ip), vehicle: water 103 % of control and 105 % of control | endpoint: median survival time, dose: 50.0 mg/kg/injection, schedule: Q01DX001 (ip), vehicle: water 98 % of control and 112 % of control | endpoint: median survival time, dose: 100.0 mg/kg/injection, schedule: Q01DX001 (ip), vehicle: water 115 % of control (2×) and 122 % of control

CC[C@H](C)c1occ2c(O)c(C(=O)O)c(=O)cc-2c1C
inactive: endpoint: mean survival time, dose: 100.0 mg/kg/injection, schedule: Q01DX001 (ip), vehicle: saline 98 % of control | endpoint: mean survival time, dose: 200.0 mg/kg/injection, schedule: Q01DX001 (ip), vehicle: saline 101 % of control

CCN(CC)c1nc(N(CC)CC)nc(N(CC)CC)n1
inactive: [1] 93 % of control | [2] 93 % of control | [3] 95 % of control | [4] 93 % of control

C(COCCOCC1CO1)OCCOCC1CO1 (stereo unspecified)
inactive: endpoint: mean survival time, dose: 12.5 mg/kg/injection, schedule: Q01DX009 (ip), vehicle: saline with Tween-80 104 % of control | [1] 108 % of control | [2] 104 % of control | [3] 106 % of control | [4] 104 % of control
